In patent US4221794A, “Method of imparting immunomodulating and antiviral activity” (Newport Pharmaceuticals International, Inc., priority 1979, dated 1980):
In brackets after ≈: the same amount, converted by molar mass.

What was measured:
[1] = tested on: mouse lymphocytes; assay: Mitogen (Con A) induced mouse lymphocyte (spleen cell) proliferation; format: cell-based; settings: for Maximum Percent Change, Mitogen Induced (Con A) Mouse Lymph. Prolif.: plus = immunostimulating, minus = immunoinhibiting, 0 = neither
Source text: The following three assay procedures are used to evaluate the ability of the test substances to modulate the activity of several classes of cells in the immune system. In these systems it is possible to identify both immunopotentiating activity (evidence by an enhancement of the parameter examined) as well as immunosuppressant activity (evidenced by an inhibition of the parameter examined).
1. Mitogen-Induced Mouse Spleen Cell Assay
Mouse spleen cells contain a population of both B and T lymphocytes which can be stimulated by a number of foreign substances (e.g., plant mitogens such as Con A) to proliferate. This enhanced proliferation is an indication of enhanced cell mediated immunity. The method below describes the system used to evaluate test substances as immunopotentiators.
Concanavalin A (Calbiochem, La Jolla, California), Lot #210073, lyophilized in NaCl, was prepared first as a 1% solution and diluted as a 2×concentration for each dilution (0.5, 1.0, 2.5 μg/ml).
Six to eight week old male Balb/c and C3 H inbred mice were obtained from the following sources: Flow Research Animals, Inc., Dublin, Virginia; Charles River Breeding Laboratories, Wilmington, Massachusetts; Laboratory Supply Company, Indianapolis, Indiana; and Lionel Strong Foundation, San Diego, California.
Three to five mice were sacrificed by cervical dislocation and the spleens aseptically removed. Pooled spleens were minced and teased with sterile forceps; then strained through a double layer of nylon mesh. The cell suspension was washed once with 15 ml of RPMI 1640 supplemented with 5% fetal calf serum and antibiotics. Cells were cultured at a concentration of 10^6 cells/0.1 ml/well in micro-plates. Cultures were incubated in the presence or absence of mitogen in a humidified atmosphere containing 5% CO2 for 48 hours. The test compound was added to cultures at various concentrations concommitant with mitogen.
Proliferation was assayed by the degree of incorporation of 1.0 μCi of [^3 H] thymidine over an 18 hour incubation period. Cultures were harvested by a MASH unit (Otto Hiller Co., Madison, Wisconsin) and thymidine incorporation was assayed by liquid scintillation spectrometry. Cultures were performed in triplicate and data are expressed as means plus or minus the standard error of the experimental means. Drug stimulation indices over control values were also calculated and portrayed graphically.
(§1) Table 4 above presents the results of an evaluation of a number of these subject compounds as potentiators of the immune response. Three different test systems were used. The first involves a measure of the ability of the test compound to enhance the ability of mouse lymphocytes to proliferate in response to a plant mitogen (Con A). The second involves measuring the ability of the test compounds to enhance human lymphocyte proliferation in response to a second plant mitogen (PHA). The third system measures the ability of these test substances to enhance macrophage proliferation in response to a natural lymphokine (MMF, Macrophage Mitogenic Factor).

[2] = tested on: L-1210 leukemic cells; assay: Anti-leukemic activity, inhibition of L-1210 growth; format: cell-based, mouse
Protocol: Anti-Leukemic Activity (Inhibition of L-1210 Growth)
Leukemic cells isolated from mice bearing the L-1210 tumor are cultured in vitro and their growth can be measured by counting the number of cells in the culture over a period of time. The incorporation of a test substance into the media will prevent the growth of the leukemic cells, an indication of an effective anti-leukemic agent.
I50 (concentration of drug inhibiting growth of L-1210) by % for the tested compounds was as follows:
To Measure Inhibition of Leukemic Cell (L-1210) Growth
Check to see that there is adequate cell growth in the stock cultures. Use cells 48-72 hours after transfers are done.
Weigh out the drugs at 50 times the desired final concentration and made serial dilutions.
Make up the final medium using 500 mls McCoy's 5A medium, 15% fetal calf serum, 5 mls penicillin-streptomycin solution, and 5 mls antibiotic-antimycotic solution and let it stand at room temperature.
Using sterile technique, add 0.1 ml of the drug dilutions to each tube.
Add an appropriate quantity of cells to the prepared medium. After mixing, remove a 0.5 ml sample, place it in a vial containing […] of saline, and count it on the Coulter Counter. Multiply the count by 40 to compensate for the 40 fold dilution (0.5 ml into […] and record the inoculum.
Add 5 mls of cell suspension to each tube. Swirl the bottle every 4 tubes to insure a more uniform distribution of cells.
Tighten the caps and place in the CO2 incubator at 36°-38° for 96 hours.
After 96 hours remove the tubes from the incubator and count the contents of each on the Coulter Counter. Multiply all counts by 40 and average the four counts for each drug dilution. If the count is less than the inoculum, record 100% inhibition. If the count is greater than the average of the eight control counts, record 0% inhibition. For all other counts use the following formula: [formula] 100%-% servival=inhibition of growth due to treatment.

[3] = tested on: guinea pig macrophages; assay: Lymphokine (MMF) induced guinea pig macrophage proliferation; format: cell-based; settings: plus = immunostimulating, minus = immunoinhibiting, 0 = neither
Protocol: 3. The macrophage represents a subpopulation of white blood cells which is an important component of the immune system in control of both cellular and humoral immunity. The assay system described below evaluates the substances studied as potentiators of macrophage function.
Phytohemagglutinin (PHA) (HA-17) was purchased from Burroughs Wellcome. A preparation containing Macrophage Mitogen Factor (MMF) and Macrophage Activating Factor (MAF) was prepared from antigen-stimulated immune lymph node lymphocytes (guinea pig) as previously described by Hadden et al, Nature 257, 483-485 (1975). […] The active fraction was employed in both the proliferation and activation assays.
Ficoll-hypaque purified human peripheral blood lymphocytes were prepared and PHA-induced lymphocyte proliferation was assayed by the incorporation of tritiated thymidine as described in Hadden et al., Cell. Immunol. 20, 98-103 (1975). Each compound was analyzed in the presence of suboptimal, optimal and supraoptimal concentrations of PHA (0.001, 0.01, 0.1 units/ml respectively). Paraffin oil-induced guinea pig peritoneal macrophages were prepared and incubated as monolayer culture (>98% pure macrophages). Lymphokine (MMF)-induced proliferation was assayed by the incorporation of tritiated thymidine at 3 and 5 days of culture as described, Hadden et al, Nature 257, 483-485 (1975). Lymphokine (MAF)-induced macrophage activation to kill Listeria monocytogenes following 5 days of culture in the presence or absence of MAF was performed during a 6 hour period as described in Hadden and England, Immunopharmacology, pages 87-100 (Plenum Press, 1977). Phagocytosis was quantitated during a 20-minute exposure to Listeria monocytogenes by counting the number of macrophages containing bacteria and the number of bacteria per phagocytic cell on gram stained monolayers in Labtek chambers. Intracellular killing of bacteria was evaluated by counting the number of cells containing bacteria and the number of bacteria/cell 6 hours after the initial 20 minute exposure. Parallel experiments in which macrophages were lysed and intracellular bacteria were cultured confirm the validity of bacterial activity determined by this manner in this system. The drugs were employed in each of the three systems over serial log concentration range in triplicate in the presence and absence of mitogen or lymphokine. Each type of experiment was performed at least three times. Previous experiments indicate a parallelism of response to pharmacologic modulation in the proliferation and achivation assays.
as §1

Row | Compound | % Stimulation, Mitogen Induced Murine Lymphocyte Proliferation ([1]; 01-1.0 μg/ml) | % Stimulation, Mitogen Induced Murine Lymphocyte Proliferation ([1]; 1.0-10 μg/ml) | Maximum Percent Change, Mitogen Induced (Con A) Mouse Lymph. Prolif. ([1]; 1.0-10 (unit not given)) | % Stimulation, Mitogen Induced Murine Lymphocyte Proliferation ([1]; 10-100 μg/ml) | Maximum Percent Change, Mitogen Induced (Con A) Mouse Lymph. Prolif. ([1]; 10-100 (unit not given)) | Maximum Percent Change, Mitogen Induced (Con A) Mouse Lymph. Prolif. ([1]; .01-1.0 (unit not given)) | IC50 ([2]; Mus musculus, L1210, tissue culture, read-out: 50% inhibition of L-1210 cells) | Maximum Percent Change, Lymphokine Induced (MMF) Guinea Pig Mac. Prolif. ([3]; 1.0-10 (unit not given)) | Maximum Percent Change, Lymphokine Induced (MMF) Guinea Pig Mac. Prolif. ([3]; .01-1.0 (unit not given)) | I50 (concentration of drug inhibiting growth of L-1210) ([2]; 96 hours) | Potentiation Anti-Leukemia by DIP.PAcBA salt ([2]; salt compared with parent compound) | 50% inhibition of L-1210 cells ([2]; tissue culture)
1 | CCCCCC[C@H]([C@H](C)O)n1cnc2c(=O)[nH]cnc21 (relative stereo) [NPT 15392, ERYTHRO-9-(2-HYDROXY-3-NONYL)HYPOXANTHINE] | > 50% | 30-50% | 162% | 30-50% | -72% | 172% | 28 µg/mL (≈ 101 µM) | 23% | 33% | – | – | –
2 | CCCCCC[C@H]([C@H](C)O)n1cnc2c(=O)[nH]cnc21 (relative stereo) [NPT 15410] | > 50% | 30-50% | 40% | 30-50% | 40% | 140% | – | 23% | 12% | 54 micrograms/ml | Yes | 54 µg/mL
